Test results: BindingDB's records for doi:10.1016/s0014-2999(02)02124-6 (Schering-Plough Research Institute, 2002)

Columns and labels:
Neuromedin-K receptor = molecular target: T1, Neuromedin-K receptor (Homo sapiens, UniProt P29371)
T1 sequence (P29371 whole entry): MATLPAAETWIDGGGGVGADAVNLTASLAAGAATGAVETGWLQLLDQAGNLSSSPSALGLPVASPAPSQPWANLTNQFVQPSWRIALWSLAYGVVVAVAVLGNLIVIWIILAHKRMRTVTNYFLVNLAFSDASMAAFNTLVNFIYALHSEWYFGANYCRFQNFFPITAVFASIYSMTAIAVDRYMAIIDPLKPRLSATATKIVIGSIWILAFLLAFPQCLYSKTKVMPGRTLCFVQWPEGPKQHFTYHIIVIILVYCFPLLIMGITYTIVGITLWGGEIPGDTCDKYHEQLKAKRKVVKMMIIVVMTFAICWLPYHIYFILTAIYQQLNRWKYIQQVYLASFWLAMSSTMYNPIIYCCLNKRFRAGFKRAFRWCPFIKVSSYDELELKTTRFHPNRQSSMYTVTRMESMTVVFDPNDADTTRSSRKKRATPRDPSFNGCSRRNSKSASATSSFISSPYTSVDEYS

Substance-P receptor = Substance-P receptor (Homo sapiens, UniProt P25103)
Substance-P receptor, sequence (P25103 whole entry): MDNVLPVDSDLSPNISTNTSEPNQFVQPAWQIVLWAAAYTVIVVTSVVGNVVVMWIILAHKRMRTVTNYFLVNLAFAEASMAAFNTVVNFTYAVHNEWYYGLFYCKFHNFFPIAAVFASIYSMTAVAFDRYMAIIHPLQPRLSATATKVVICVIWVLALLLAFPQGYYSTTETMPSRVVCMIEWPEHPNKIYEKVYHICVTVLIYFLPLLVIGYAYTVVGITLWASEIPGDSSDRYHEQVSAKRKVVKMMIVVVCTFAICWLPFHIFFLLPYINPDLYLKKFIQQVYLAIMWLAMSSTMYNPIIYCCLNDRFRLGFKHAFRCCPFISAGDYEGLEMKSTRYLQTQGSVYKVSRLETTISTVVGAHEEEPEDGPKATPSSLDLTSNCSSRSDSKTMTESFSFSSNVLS

Substance-K receptor = molecular target: T2, Substance-K receptor (Homo sapiens, UniProt P21452)
T2 sequence (P21452 whole entry): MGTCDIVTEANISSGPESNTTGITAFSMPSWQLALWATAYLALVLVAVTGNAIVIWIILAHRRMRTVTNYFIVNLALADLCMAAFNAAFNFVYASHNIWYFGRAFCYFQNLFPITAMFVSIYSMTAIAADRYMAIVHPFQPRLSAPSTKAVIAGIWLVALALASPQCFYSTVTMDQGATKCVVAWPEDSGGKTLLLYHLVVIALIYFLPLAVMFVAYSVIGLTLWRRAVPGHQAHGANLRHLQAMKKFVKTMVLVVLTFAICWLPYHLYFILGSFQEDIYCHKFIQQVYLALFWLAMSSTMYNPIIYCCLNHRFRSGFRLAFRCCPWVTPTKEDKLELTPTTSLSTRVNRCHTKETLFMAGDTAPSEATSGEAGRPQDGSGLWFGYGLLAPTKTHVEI

Structure (SMILES)	Ki (Neuromedin-K receptor)	Ki (Substance-P receptor)	Ki (Substance-K receptor)
CNC(=O)CC1CCCN(C2CCN(CC[C@@H](/C(CN(C)C(=O)c3cc(Cl)cc(Cl)c3)=N/OC)c3ccc(Cl)c(Cl)c3)CC2)C1=O (stereo partly drawn)	0.3 nM	1.3 nM	0.4 nM
CC(=O)NC1(c2ccccc2)CCN(CCC(CN(C)C(=O)c2ccccc2)c2ccc(Cl)c(Cl)c2)CC1 (stereo not drawn) [SR 48968]	1280 nM	273 nM	0.4 nM
COc1ccccc1CN[C@H]1CCCN[C@H]1c1ccccc1 [(+/-)(2-Methoxy-benzyl)-(2-phenyl-piperidin-3-yl)-amine]	> 10000 nM	–	> 10000 nM
